Data from patent publication US12372533B2, “Identification of immunogenic mutant peptides using genomic, transcriptomic and proteomic information” (Genentech, Inc., priority 2014, dated 2025).
Where a SMILES comes first, the peptide text is derived from it.

Columns and labels:
Type in all cases: in vivo, mouse
[1] = test system: MC-38 tumors; assay: Peptide-specific CD8 tumor-infiltrating cells (TILs) in MC-38 tumors, dextramer staining; conditions: for peptide-specific CD8 T cells in the tumor bed: FIG. 4B
Text: (§1) The immunogenicity of these mutated peptides was confirmed in the context of the tumor by analyzing tumor-infiltrating cells (TILs).
C57BL/6 mice were implanted subcutaneously on the right flank with 1×10^5 MC-38 tumor cells. The whole tumor was isolated and digested with collagenase and DNAase to isolate TILs. TILs were stained with dextramers (as described above) followed by antibodies against CD45, Thy1.2, CD4, CD8 (BD Biosciences), PD-1 (eBiosciences) and TIM-3 (R&D Systems). Live/dead stain was used to gate on live cells.

[2] = test system: wild type C57BL/6 mice; assay: Immunization of mice with long peptides plus adjuvant, CD8 T cell response by MHCI/peptide-specific dextramers; conditions: long peptides encoding the mutated epitopes plus adjuvant, day 0 and day 14, compared to adjuvant alone; FIG. 4A
[3] = test system: TRAMP-C1 tumors; assay: Peptide-specific CD8 tumor-infiltrating cells in syngeneic TRAMP-C1 tumors
Text: as §1

Compound | peptide-specific CD8 T cells in the tumor bed [1] | CD8 T cell response [2] | Adpgk-specific CD8 T cells in tumor [3] | relative abundance of peptide-specific CD8 T cells among Reps1, Adpgk and Dpagt1 [1]
CC(C)C[C@H](NC(=O)[C@@H](NC(=O)[C@@H](NC(=O)[C@H](CC(=O)O)NC(=O)[C@H](CC(N)=O)NC(=O)[C@H](C)NC(=O)[C@H](CC(C)C)NC(=O)[C@H](CCC(N)=O)NC(=O)[C@H](C)N)C(C)C)C(C)C)C(=O)O [Reps1, AQLANDVVL] (H-AQLANDVVL-OH; N-terminus and C-terminus assumed) | enriched in the tumor bed | strong CD8 T cell responses | – | –
ASMTNMELM [Adpgk, mutant peptide presented on MHCI (H-2Db) in the MC-38 cell line] | enriched in the tumor bed | strong CD8 T cell responses | no Adpgk-specific CD8 T cells were detected | most abundant of the three
SIIVFNLL [Dpagt1, mutant peptide presented on MHCI (H-2Kb) in the MC-38 cell line] | enriched in the tumor bed | weak CD8 T cells response | – | –
